Source: ChEMBL document CHEMBL1201862, “PubChem BioAssay data set” (2004)
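Results reflect a 48-hour exposure of cells in 96-well plates to compound at five concentrations. GI50 marks 50% less growth.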 Activity calls are given as the source filed them. Rule as the data show it: active = GI50 up to about 1.1 µM and inactive = higher.

What was measured:
Assay in all cases: DTP human tumour cell line panel, 48 h
RPMI-8226 = system: RPMI-8226
IGROV-1 = system: IGROV-1
DU-145 = system: DU-145
MCF7 = system: MCF7
T47D = system: T47D
786-0 = system: 786-0
U-251 = system: U-251
LOX IMVI = system: LOX IMVI
HCC 2998 = system: HCC 2998
ACHN = system: ACHN
SF-268 = system: SF-268
SK-MEL-28 = system: SK-MEL-28
A549 = system: A549
CAKI-1 = system: CAKI-1
HCT-15 = system: HCT-15
SNB-75 = system: SNB-75
HCT-116 = system: HCT-116
SR = system: SR
NCI-H23 = system: NCI-H23
SN12C = system: SN12C
KM12 = system: KM12
OVCAR-8 = system: OVCAR-8
SW-620 = system: SW-620
OVCAR-4 = system: OVCAR-4
A498 = system: A498
TK-10 = system: TK-10
SK-MEL-5 = system: SK-MEL-5
UACC-257 = system: UACC-257
EKVX = system: EKVX
SK-OV-3 = system: SK-OV-3
UO-31 = system: UO-31
HT-29 = system: HT-29
CCRF-CEM = system: CCRF-CEM
SF-295 = system: SF-295
Hs-578T = system: Hs-578T
MDA-MB-435 = system: MDA-MB-435
UACC-62 = system: UACC-62
K562 = system: K562
NCI-H460 = system: NCI-H460
SNB-19 = system: SNB-19
NCI/ADR-RES = system: NCI/ADR-RES
NCI-H226 = system: NCI-H226
HL-60 = system: HL-60
MOLT-4 = system: MOLT-4
MDA-MB-231 = system: MDA-MB-231
HOP-62 = system: HOP-62
Malme-3M = system: Malme-3M
SK-MEL-2 = system: SK-MEL-2
MDA-N = system: MDA-N
SF-539 = system: SF-539
COLO 205 = system: COLO 205
PC-3 = system: PC-3
M14 = system: M14

## O=C(/C=C/c1ccsc1)c1ccc(Cl)s1
RPMI-8226
  GI50: 17.1 µM (inactive)
IGROV-1
  GI50: > 100 µM (inactive)
DU-145
  GI50: > 100 µM (inactive)
MCF7
  GI50: 22.5 µM (inactive)
T47D
  GI50: > 100 µM (inactive)
786-0
  GI50: > 10 µM (inactive)
U-251
  GI50: > 100 µM (inactive)
LOX IMVI
  GI50: 19.4 µM (inactive)
HCC 2998
  GI50: 31.7 µM (inactive)
ACHN
  GI50: > 100 µM (inactive)
SF-268
  GI50: 67.5 µM (inactive)
SK-MEL-28
  GI50: 55.1 µM (inactive)
A549
  GI50: > 100 µM (inactive)
CAKI-1
  GI50: > 100 µM (inactive)
HCT-15
  GI50: 43.5 µM
SNB-75
  GI50: > 100 µM (inactive)
HCT-116
  GI50: 25.4 µM (inactive)
SR
  GI50: 24 µM (inactive)
NCI-H23
  GI50: 82.8 µM (inactive)
SN12C
  GI50: 75.3 µM (inactive)
KM12
  GI50: 19.5 µM (inactive)
OVCAR-8
  GI50: > 100 µM (inactive)
SW-620
  GI50: 24.7 µM (inactive)
OVCAR-4
  GI50: > 100 µM (inactive)
A498
  GI50: 34.5 µM (inactive)
TK-10
  GI50: > 100 µM (inactive)
SK-MEL-5
  GI50: > 100 µM (inactive)
UACC-257
  GI50: > 100 µM (inactive)
EKVX
  GI50: > 100 µM (inactive)
SK-OV-3
  GI50: > 100 µM (inactive)
UO-31
  GI50: 78.9 µM (inactive)
HT-29
  GI50: 34 µM (inactive)
CCRF-CEM
  GI50: 28.4 µM (inactive)
SF-295
  GI50: 59.4 µM (inactive)
Hs-578T
  GI50: > 100 µM (inactive)
MDA-MB-435
  GI50: 30.6 µM (inactive)
UACC-62
  GI50: > 100 µM (inactive)
K562
  GI50: > 10 µM (inactive)
NCI-H460
  GI50: > 100 µM (inactive)
SNB-19
  GI50: > 100 µM (inactive)
NCI/ADR-RES
  GI50: > 100 µM (inactive)
NCI-H226
  GI50: 53.3 µM (inactive)
HL-60
  GI50: 24.8 µM (inactive)
MOLT-4
  GI50: 20.6 µM (inactive)
MDA-MB-231
  GI50: > 100 µM (inactive)
HOP-62
  GI50: > 100 µM (inactive)
Malme-3M
  GI50: > 100 µM (inactive)
SK-MEL-2
  GI50: > 100 µM (inactive)
MDA-N
  GI50: 56.6 µM (inactive)
SF-539
  GI50: > 100 µM (inactive)
COLO 205
  GI50: > 100 µM (inactive)
PC-3
  GI50: > 100 µM (inactive)
M14
  GI50: > 100 µM (inactive)
